Structures can show the parent of a compound that is named as a salt.
Test system: MTT (mouse pheochromocytoma)
Experiment: IC50 of cell viability (ATP content)
Conditions: (24 or 48 h)
Procedure, shortened: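 MTT mouse pheochromocytoma cells (5 µl of 200,000 cells/ml per well, white 1536-well plates, DMEM with 5% FBS and 1% horse serum) were cultured overnight at 37°C, 5% CO2. They then received 23 nl library compound in DMSO by pintool at 8 concentrations (final 0.5 nM to 46 µM) for 24 or 48 hrs. CellTiter-Glo ATP luminescence was read after 15 minutes. Signals were normalised to positive-control (100% inhibition) and DMSO (0%) wells, and IC50 came from a four-parameter logistic fit.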

Structure (SMILES) | IC50 of cell viability
Cc1ccc(O)c2ncccc12 [Tiliquinol] | > 46 µM
CCCCCCC(=O)CCCCCC/C=C/C[C@@H](O)[C@H](O)[C@@](N)(CO)C(=O)O [Myriocin from Mycelia sterilia] | > 46 µM
COC(=O)c1ccccc1C(=O)OC [Dimethyl phthalate] | > 46 µM
CCC[C@@H](N[C@@H](C)C(=O)N1[C@@H](C(=O)O)C[C@@H]2CCCC[C@@H]21)C(=O)OCC [Perindopril] | > 46 µM
CC(C)=O [Acetone] | > 46 µM
CCCCOCCOCCOCc1cc2c(cc1CCC)OCO2 [Piperonyl butoxide] | > 46 µM
OC[C@@H]1O[C@@H](OC2=CC\3=C(OC(=O)\C=C3)C=C2O)[C@H](O)[C@H](O)[C@@H]1O [Esculin Hydrate] | > 46 µM
OC(=O)CN(CC(O)=O)CC1=CC/2=C(OC/3=C/C(=O)/C(=C\C3=C2C4=CC=CC=C4C(O)=O)CN(CC(O)=O)CC(O)=O)C=C1O [CALCEIN] | > 46 µM
Oc1cc(Cl)ccc1Oc1ccc(Cl)cc1Cl [Triclosan] | > 46 µM
O[C@@](CCN1CCCC1)(c1ccccc1)C1CCCCC1 [Procyclidine hydrochloride] | > 46 µM
CCOC(=O)c1ccc(N)cc1 [Benzocaine] | > 46 µM
Cc1cc(O)c2c(O)c3c(O)cccc3cc2c1 [Chrysarobin] | > 46 µM
C=CC[N+]1(C)CCC23c4c5ccc(O)c4O[C@H]2C(=O)CC[C@@]3(O)C1C5 (stereo not given in full) [NALOXONE METHIODIDE] | > 46 µM
CCCCCCCCCC(=O)O[C@H]1CC[C@H]2[C@@H]3CCC4=CC(=O)CC[C@]4(C)[C@H]3CC[C@]12C [TESTOSTERONE DECANOATE] | > 46 µM
CSc1ccc(/C=C2/C(C)=C(CC(=O)O)c3cc(F)ccc32)cc1 [Sulindac sulfide] | > 46 µM
CC(=O)[C@H]1CC[C@H]2[C@@H]3CC[C@H]4C[C@H](O)CC[C@]4(C)[C@H]3C(=O)C[C@]12C [5alpha-Pregnan-3alpha-ol-11,20-dione] | > 46 µM
N[C@H](CCC(=O)O)C(=O)O [D-GLUTAMIC ACID] | > 46 µM
COc1ccc2c(c1OC)CN1CCc3cc4c(cc3[C@H]1C2)OCO4 [(d,l)-Tetrahydroberberine] | > 46 µM
COc1cc(CC(C)N)c(OC)cc1C (single isomer, unassigned; (-)) [(-)-2,5-Dimethoxy-4-methylamphetamine] | > 46 µM
CCCCCCCCCCCCCCCCCC(=O)O [Stearic acid] | > 46 µM

Continued, values first:

IC50 of cell viability | Structure (SMILES)
> 46 µM | COc1ccc(C(=O)CC(=O)c2ccc(C(C)(C)C)cc2)cc1 [AVOBENZONE]
> 46 µM | CCCCCCCC(=O)O [caprylic acid (octanoic acid)]
> 46 µM | O=C(O)c1ccccc1S [Thiosalicylic acid]
> 46 µM | COC(=O)C(Cc1ccccc1)NC(=O)C(N)CC(=O)O (stereo not given) [ASPARTAME]
> 46 µM | COP(=O)(OC)OC(c1ccc(Cl)cc1)P(=O)(OC)OC (stereo not given) [MIFOBATUM]
> 46 µM | ClC1=CC=C2C(CCC3=C(N=CC=C3)\C2=C4\CCNCC4)=C1 [Desloratadine]
> 46 µM | CC(C)CC(=O)N[C@H](C(=O)N[C@H](C(=O)N[C@@H](CC(C)C)[C@@H](O)CC(=O)N[C@@H](C)C(=O)N[C@@H](CC(C)C)[C@@H](O)CC(=O)O)C(C)C)C(C)C [PEPSTATINUM]
> 46 µM | CCC(=O)OCC(=O)C1(OC(=O)CC)C(C)CC2C3CCC4=CC(=O)C=CC4(C)C3(F)C(O)CC21C (stereo not given) [Betamethasone dipropionate]
> 46 µM | COc1cc(N[S+](=O)([O-])c2ccc(N)cc2)nc(OC)n1 [Sulfadimethoxine]
> 46 µM | CC[C@@H]1C(=O)OC[C@@H]1Cc1cncn1C [PILOCARPINE]
